Results published in the OPERA property sets (Mansouri et al. 2018).

## O=P(NN=Cc1ccc(F)cc1)(N1CC1)N1CC1
  logP: 0.45

## CN(N=Cc1ccc([N+](=O)[O-])cc1)P(=O)(N1CC1)N1CC1
  logP: 0.51

## O=P(N1CC1)(N1CC1)N(N=Cc1ccccc1)c1ccccc1
  logP: 0.56

## O=P(NN=Cc1ccccc1)(N1CC1)N1CC1
  logP: 0.48

## COc1ccc(C=NNP(=O)(N2CC2)N2CC2)cc1
  logP: 0.42

## CC(C)=NN(C)P(=O)(N1CC1)N1CC1
  logP: 0.51

## COc1ccc(C=NN(c2ccccc2)P(=O)(N2CC2)N2CC2)cc1
  logP: 0.57

## CN(N=Cc1ccc(Br)cc1)P(=O)(N1CC1)N1CC1
  logP: 0.31

## O=P(NN=Cc1ccc(Cl)cc1)(N1CC1)N1CC1
  logP: 0.13

## CN(N=Cc1ccccc1)P(=O)(N1CC1)N1CC1
  logP: 0.51

## COc1ccc(C=NN(C)P(=O)(N2CC2)N2CC2)cc1
  logP: 0.47

## O=P(N1CC1)(N1CC1)N(N=Cc1ccc(F)cc1)c1ccccc1
  logP: 0.56

## O=P(N1CC1)(N1CC1)N(N=Cc1ccc(Cl)cc1)c1ccccc1
  logP: 0.35

## CN(N=Cc1ccc(F)cc1)P(=O)(N1CC1)N1CC1
  logP: 0.48

## O=[N+]([O-])c1ccc(C=NN(c2ccccc2)P(=O)(N2CC2)N2CC2)cc1
  logP: 0.57

## O=[N+]([O-])c1ccc(C=NNP(=O)(N2CC2)N2CC2)cc1
  logP: 0.45

## CC(C)=NNP(=O)(N1CC1)N1CC1
  logP: 0.45

## CC(C)=NN(c1ccccc1)P(=O)(N1CC1)N1CC1
  logP: 0.57

## O=[N+]([O-])c1ccc(N(N=Cc2ccccc2)P(=O)(N2CC2)N2CC2)cc1
  logP: 0.57
